{"source": "patent US20100099561A1", "about": "“HETEROBICYCLIC ALKYLTHIO-BRIDGED ISOXAZOLINES” (E.I. DU PONT DE NEMOURS AND COMPANY, priority 2008, published 2010)", "assay_type_in_all_cases": "in vivo", "key": {"[1]": {"test_system": "pigweed (Amaranthus retroflexus)", "assay": "Test A preemergence, pigweed", "conditions": "0 to 100 scale (0 no effect, 100 complete control)", "from_the_text": "(§1) Seeds of barnyardgrass (Echinochloa crus-galli), large crabgrass (Digitaria sanguinalis), giant foxtail (Setaria faberi), morningglory (Ipomoea spp.), pigweed (Amaranthus retroflexus), velvetleaf (Abutilon theophrasti), wheat (Triticum aestivum), and corn (Zea mays) were planted into a blend of loam soil and sand and treated preemergence with a directed soil spray using test chemicals formulated in a non-phytotoxic solvent mixture which included a surfactant. At the same time these species were also treated with postemergence applications of test compounds formulated in the same manner. Plants ranged in height from two to ten cm and were in the one- to two-leaf stage for the postemergence treatment. Treated plants and untreated controls were maintained in a greenhouse for approximately ten days, after which time all treated plants were compared to untreated controls and visually evaluated for injury. Plant response ratings, summarized in Table A, are based on a 0 to 100 scale where 0 is no effect and 100 is complete control. A dash (-) response means no test result."}, "rice (Oryza sativa)": {"test_system": "rice (Oryza sativa)", "assay": "Test B flooded paddy test, rice", "conditions": "Flood, scale 0 to 100", "from_the_text": "(§2) Plant species in the flooded paddy test consisted of rice (Oryza sativa), umbrella sedge (Cyperus difformis), ducksalad (Heteranthera limosa) and barnyardgrass (Echinochloa crus-galli) grown to the 2-leaf stage for testing. At time of treatment, test pots were flooded to 3 cm above the soil surface, treated by application of test compounds directly to the paddy water, and then maintained at that water depth for the duration of the test. Treated plants and controls were maintained in a greenhouse for 13 to 15 days, after which time all species were compared to controls and visually evaluated. Plant response ratings, summarized in Table B, are based on a scale of 0 to 100 where 0 is no effect and 100 is complete control. A dash (-) response means no test result."}, "[2]": {"test_system": "barnyardgrass (Echinochloa crus-galli)", "assay": "Test A preemergence, barnyardgrass", "conditions": "0 to 100 scale (0 no effect, 100 complete control)", "from_the_text": "as §1"}, "corn (Zea mays) [3]": {"test_system": "corn (Zea mays)", "assay": "Test A postemergence, corn", "conditions": "0 to 100 scale (0 no effect, 100 complete control)", "from_the_text": "as §1"}, "[4]": {"test_system": "wheat (Triticum aestivum)", "assay": "Test A preemergence, wheat", "conditions": "0 to 100 scale (0 no effect, 100 complete control)", "from_the_text": "as §1"}, "[5]": {"test_system": "velvetleaf (Abutilon theophrasti)", "assay": "Test A postemergence, velvetleaf", "conditions": "0 to 100 scale (0 no effect, 100 complete control)", "from_the_text": "as §1"}, "[6]": {"test_system": "velvetleaf (Abutilon theophrasti)", "assay": "Test A preemergence, velvetleaf", "conditions": "0 to 100 scale (0 no effect, 100 complete control)", "from_the_text": "as §1"}, "[7]": {"test_system": "morningglory (Ipomoea spp.)", "assay": "Test A preemergence, morningglory", "conditions": "0 to 100 scale (0 no effect, 100 complete control)", "from_the_text": "as §1"}, "corn (Zea mays) [8]": {"test_system": "corn (Zea mays)", "assay": "Test A preemergence, corn", "conditions": "0 to 100 scale (0 no effect, 100 complete control)", "from_the_text": "as §1"}, "[9]": {"test_system": "large crabgrass (Digitaria sanguinalis)", "assay": "Test A preemergence, large crabgrass", "conditions": "0 to 100 scale (0 no effect, 100 complete control)", "from_the_text": "as §1"}, "[10]": {"test_system": "morningglory (Ipomoea spp.)", "assay": "Test A postemergence, morningglory", "conditions": "0 to 100 scale (0 no effect, 100 complete control)", "from_the_text": "as §1"}, "[11]": {"test_system": "pigweed (Amaranthus retroflexus)", "assay": "Test A postemergence, pigweed", "conditions": "0 to 100 scale (0 no effect, 100 complete control)", "from_the_text": "as §1"}, "[12]": {"test_system": "wheat (Triticum aestivum)", "assay": "Test A postemergence, wheat", "conditions": "0 to 100 scale (0 no effect, 100 complete control)", "from_the_text": "as §1"}, "[13]": {"test_system": "giant foxtail (Setaria faberi)", "assay": "Test A postemergence, giant foxtail", "conditions": "0 to 100 scale (0 no effect, 100 complete control)", "from_the_text": "as §1"}, "[14]": {"test_system": "barnyardgrass (Echinochloa crus-galli)", "assay": "Test B flooded paddy test, barnyardgrass", "conditions": "Flood", "from_the_text": "as §2"}, "[15]": {"test_system": "umbrella sedge (Cyperus difformis)", "assay": "Test B flooded paddy test, umbrella sedge", "conditions": "Flood, scale 0 to 100", "from_the_text": "as §2"}, "[16]": {"test_system": "large crabgrass (Digitaria sanguinalis)", "assay": "Test A postemergence, large crabgrass", "conditions": "0 to 100 scale (0 no effect, 100 complete control)", "from_the_text": "as §1"}, "[17]": {"test_system": "ducksalad (Heteranthera limosa)", "assay": "Test B flooded paddy test, ducksalad", "conditions": "Flood, scale 0 to 100", "from_the_text": "as §2"}, "[18]": {"test_system": "giant foxtail (Setaria faberi)", "assay": "Test A preemergence, giant foxtail", "conditions": "0 to 100 scale (0 no effect, 100 complete control)", "from_the_text": "as §1"}, "[19]": {"test_system": "barnyardgrass (Echinochloa crus-galli)", "assay": "Test A postemergence, barnyardgrass", "conditions": "0 to 100 scale (0 no effect, 100 complete control)", "from_the_text": "as §1"}}, "data": [{"smiles": "CC1(C)CC(S(=O)(=O)Cc2c(C(F)(F)F)nc3ccccn3c2=O)=NO1", "note": "[Compound 7]", "values": [{"measurement": "Plant response rating, Pigweed", "setting": "[1]; 125 g ai/ha", "result": 0}, {"measurement": "Plant response rating, Pigweed", "setting": "[1]; 500 g ai/ha", "result": 0}, {"measurement": "Plant response rating, Rice", "setting": "rice (Oryza sativa); 62 g ai/ha", "result": 0}, {"measurement": "Plant response rating, Rice", "setting": "rice (Oryza sativa); 250 g ai/ha", "result": 0}, {"measurement": "Plant response rating, Barnyardgrass", "setting": "[2]; 125 g ai/ha", "result": 60}, {"measurement": "Plant response rating, Barnyardgrass", "setting": "[2]; 500 g ai/ha", "result": 90}, {"measurement": "Plant response rating, Corn", "setting": "corn (Zea mays) [3]; 125 g ai/ha", "result": 0}, {"measurement": "Plant response rating, Corn", "setting": "corn (Zea mays) [3]; 500 g ai/ha", "result": 0}, {"measurement": "Plant response rating, Wheat", "setting": "[4]; 125 g ai/ha", "result": 0}, {"measurement": "Plant response rating, Wheat", "setting": "[4]; 500 g ai/ha", "result": 10}, {"measurement": "Plant response rating, Velvetleaf", "setting": "[5]; 125 g ai/ha", "result": 0}, {"measurement": "Plant response rating, Velvetleaf", "setting": "[5]; 500 g ai/ha", "result": 20}, {"measurement": "Plant response rating, Velvetleaf", "setting": "[6]; 125 g ai/ha", "result": 0}, {"measurement": "Plant response rating, Velvetleaf", "setting": "[6]; 500 g ai/ha", "result": 0}, {"measurement": "Plant response rating, Morningglory", "setting": "[7]; 125 g ai/ha", "result": 0}, {"measurement": "Plant response rating, Morningglory", "setting": "[7]; 500 g ai/ha", "result": 0}, {"measurement": "Plant response rating, Corn", "setting": "corn (Zea mays) [8]; 125 g ai/ha", "result": 0}, {"measurement": "Plant response rating, Corn", "setting": "corn (Zea mays) [8]; 500 g ai/ha", "result": 0}, {"measurement": "Plant response rating, Crabgrass, Large", "setting": "[9]; 125 g ai/ha", "result": 60}, {"measurement": "Plant response rating, Crabgrass, Large", "setting": "[9]; 500 g ai/ha", "result": 80}, {"measurement": "Plant response rating, Morningglory", "setting": "[10]; 125 g ai/ha", "result": 0}, {"measurement": "Plant response rating, Morningglory", "setting": "[10]; 500 g ai/ha", "result": 0}, {"measurement": "Plant response rating, Pigweed", "setting": "[11]; 125 g ai/ha", "result": 0}, {"measurement": "Plant response rating, Pigweed", "setting": "[11]; 500 g ai/ha", "result": 0}, {"measurement": "Plant response rating, Wheat", "setting": "[12]; 125 g ai/ha", "result": 0}, {"measurement": "Plant response rating, Wheat", "setting": "[12]; 500 g ai/ha", "result": 0}, {"measurement": "Plant response rating, Foxtail, Giant", "setting": "[13]; 125 g ai/ha", "result": 60}, {"measurement": "Plant response rating, Foxtail, Giant", "setting": "[13]; 500 g ai/ha", "result": 80}, {"measurement": "Plant response rating, Barnyardgrass", "setting": "[14]; 62 g ai/ha, scale 0 to 100", "result": 0}, {"measurement": "Plant response rating, Barnyardgrass", "setting": "[14]; 250 g ai/ha, scale 0 to 100 (0 no effect, 100 complete control)", "result": 0}, {"measurement": "Plant response rating, Sedge, Umbrella", "setting": "[15]; 62 g ai/ha", "result": 0}, {"measurement": "Plant response rating, Sedge, Umbrella", "setting": "[15]; 250 g ai/ha", "result": 0}, {"measurement": "Plant response rating, Crabgrass, Large", "setting": "[16]; 125 g ai/ha", "result": 40}, {"measurement": "Plant response rating, Crabgrass, Large", "setting": "[16]; 500 g ai/ha", "result": 80}, {"measurement": "Plant response rating, Ducksalad", "setting": "[17]; 62 g ai/ha", "result": 0}, {"measurement": "Plant response rating, Ducksalad", "setting": "[17]; 250 g ai/ha", "result": 0}, {"measurement": "Plant response rating, Foxtail, Giant", "setting": "[18]; 125 g ai/ha", "result": 80}, {"measurement": "Plant response rating, Foxtail, Giant", "setting": "[18]; 500 g ai/ha", "result": 90}, {"measurement": "Plant response rating, Barnyardgrass", "setting": "[19]; 125 g ai/ha", "result": 80}, {"measurement": "Plant response rating, Barnyardgrass", "setting": "[19]; 500 g ai/ha", "result": 80}]}]}
